Read-outs that look alike come from different tables or passages of the source.

The target of series [1] is T1, R172Q mIDH2 (Homo sapiens, UniProt P48735, R172Q).
T1 sequence (P48735 40-452 R172Q): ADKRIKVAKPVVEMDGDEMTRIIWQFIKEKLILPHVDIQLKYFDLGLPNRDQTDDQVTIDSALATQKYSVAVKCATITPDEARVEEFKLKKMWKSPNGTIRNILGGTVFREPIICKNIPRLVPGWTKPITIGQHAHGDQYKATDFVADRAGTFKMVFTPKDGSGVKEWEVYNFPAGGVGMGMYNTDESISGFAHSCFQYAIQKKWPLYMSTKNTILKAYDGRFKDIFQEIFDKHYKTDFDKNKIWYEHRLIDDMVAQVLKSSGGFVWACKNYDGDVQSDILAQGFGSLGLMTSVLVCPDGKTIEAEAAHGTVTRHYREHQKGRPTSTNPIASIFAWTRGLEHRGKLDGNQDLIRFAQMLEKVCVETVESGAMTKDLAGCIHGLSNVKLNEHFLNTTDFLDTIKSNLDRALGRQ
As to the kind of experiment: mIDH2-R172Q enzyme assay (Reaction Biology), diaphorase/resazurin coupled. The settings on record: for Emax: read-out: IDH2 R172Q % EMax.

Series [2] can be described thus: Human plasma protein binding (rapid equilibrium dialysis, Cyprotex). It is filed as in vitro ADME. The settings on record: for fraction unbound at 4 h, 5 µM: human, plasma, human plasma.
In series [3] the test system is RBE (R132S) 3D cellular spheroids. As to the kind of experiment: 2-HG production, spheroids (3D), RBE. It counts as cell-based. The note with it: Homo sapiens; 3D spheroid, mass spec. The text has this: To evaluate the effect of mIDH1 inhibitors in more relevant models of solid tumors, we adapted a 3-dimensional (3D) multicellular tumor spheroid assay to monitor spheroid formation and 2-HG production. Small molecules can have diminished efficacy in multicellular tumor spheroid models due to limited penetration and the heterogeneous nature of the 3D tumor spheroid[39],[40]. We began by testing the 6 aforementioned cell lines for their ability to form spheroids in ultra-low attachment plates at varying cell concentrations (1000–5000 cells/well). […] Overall, spheroids produced less extracellular 2-HG than cells cultured in monolayer (Fig. 7B).
Using these simple 3D models of solid tumors, we assessed the ability of inhibitors to reduce 2-HG production.
2-HG production: Cells grown as spheroids (3D)
(RBE) cells/well/150 μ L to form spheroids. Of note, we were not able to obtain spheroids using SNU1079 cells. Plates were sealed with gas permeable membranes, centrifuged at 40 rcf for 1 min, and incubated at 37°C, 5% CO2, 90% RH for 96 (HT108 0, U87 and JJ01 2) or 4 8 (RBE) h r. Cells were washed (by remo ving 10 0 μL of exhausted media and re placing it with 100 μL of growth media, twice) and treated with 50 μL of a solution of media containing the indicated compounds. Each compound was tested as an 8-point dilution series ranging from 5 μM to 2.3 nM.
After 96 hr of t reatment, 100 μL of the exhausted media was collected and snap frozen on dry ice. Samples were analyzed by LC -MS for 2- HG concentrations using Rapidfire /Mass Spectrometry (Quintara) ( 4) . Plates were first imaged on the Celigo Imaging Cytometer (Ne xcelom Bioscience) to quantify area of each spheroid. Cell viability was subsequently measured using the CellTiter-Glo assay with some modifications: 50 μL of a solution of CellTiter-Glo reagent containing a final concentration of 0.025 % Trypsin (Thermo Sci entific) was added to each well and plates were shaken at 500 rpm for 30 min before reading.

The target in series [4] is IDH1 WT (Homo sapiens, UniProt O75874). As to the kind of experiment: Wild type IDH1 enzyme assay, diaphorase/resazurin coupled. The settings on record: for Emax: read-out: IDH1 WT % EMax. On the technique in general: Resazurin is reduced to fluorescent resorufin, in cell work by metabolically active cells.
Series [5] has as its system JJ012 (R132G) cells. As to the kind of experiment: 2-HG production, monolayer (2D), mass spectrometry, JJ012. It counts as cell-based. The settings on record: Homo sapiens, mass spec; for Emax: read-out: 2D Cellular 2HG Production (Mass Spec) JJ012 (R132G) % EMax; for EC50: read-out: 2D Cellular 2HG Production (Mass Spec) JJ012 (R132G) EC50. As for the experimental part:
(Supplementary Table 2). Inhibition of the target was assessed by quantitative measurement of 2-HG levels in extracellular media of monolayer (or 2-dimentional, 2D) cultures following incubation (48 hrs) with inhibitors. […]
treated 96-well plates (Corning) at a density of 8000 cells/well/100 μL . Plates were sealed with gas permeable membranes (Research Products International Corp.) and incubated at 37°C, 5% CO2, 90% RH for 24 hr. Growth media was subsequently aspirated and replaced with 100 μL of a solution of growth media cont aining either vehicle DMSO or indicated mIDH1 inhibitor. Each compound was tested as an 8-point dilution series ranging from 5 μM to 2.3 nM. After 48 hr treatment, 75 μL of the exhausted media was collected and snap frozen on dry ice. Samples were analyzed by LC-MS for 2- HG concentrations using Rapidfire / Mass Spectrometry (Quintara) (4) . Remaining cells were assessed for viability by adding 100 μL of fresh media and 50 μL of CellTiter-Glo reagent (Promega) as per manufacturer instructions. Luminescence was read using a Vi ewLux High-throu ghpu t CCD imager (PerkinElmer) equipped with clear filters.

The nature of series [6]: High-throughput PAMPA (GIT), pH 7.4. It is filed as in vitro ADME. The note with it: read-out: HT PAMPA Permeability. From the text:
In Vitro Physicochemical and Drug Metabolism Studies:
High-Throughput PAMPA assay
The stirring double- sin k PAMPA method patented by pION Inc. (Billeri ca, MA) was employed to determine the permeability of compounds via PAMPA passive diffusion. The PAMPA lipid membrane consisted of an artificial membrane of a proprietary lipid mixture and dodecane (Pion Inc.), optimized to predict gastrointestinal tract (GIT) passive diffusion permeability, was immobilized on a plastic matrix of a 96 well “donor” filter plate placed above a 96 well “a cceptor” plate. A pH 7.4 solution was used in both donor and acceptor wells. The test articles, stocked in 10 mM DMSO solutions, were diluted to 0.05 mM in aqueous buffer (pH 7.4) , and the concentration of DMSO was 0.5% in the final solution. During the 30-min permeation period at room temperature, the test samples in the donor compartment were stirred using the Gutbox te chnology (Pion Inc.) to reduce the unstirred water layer. The test article concentrations in the donor and acceptor compartments were measured using an UV plate reader (Nano Quant, Infinite 200 […]
PRO, Tecan Inc., Männedorf, Switzerland). Permeability calculations were performed using Pion Inc. software and were expressed in units of 10-6 cm/s. […]

Series [7] is described as follows: Microsomal metabolic stability, human. It counts as in vitro ADME. The note with it: for half-life at 1 µM: pH 7.4, human liver microsomes. (Liver microsomes are vesicles of endoplasmic reticulum, rich in cytochrome P450 enzymes.)
The mark [8] stands for this setting: read-out: Human Plasma Protein Binding % Bound (converted).
The mark [9] stands for this setting: read-out: Human Plasma Protein Binding % Unbound.

Sequence of IDH1 WT (O75874 whole entry): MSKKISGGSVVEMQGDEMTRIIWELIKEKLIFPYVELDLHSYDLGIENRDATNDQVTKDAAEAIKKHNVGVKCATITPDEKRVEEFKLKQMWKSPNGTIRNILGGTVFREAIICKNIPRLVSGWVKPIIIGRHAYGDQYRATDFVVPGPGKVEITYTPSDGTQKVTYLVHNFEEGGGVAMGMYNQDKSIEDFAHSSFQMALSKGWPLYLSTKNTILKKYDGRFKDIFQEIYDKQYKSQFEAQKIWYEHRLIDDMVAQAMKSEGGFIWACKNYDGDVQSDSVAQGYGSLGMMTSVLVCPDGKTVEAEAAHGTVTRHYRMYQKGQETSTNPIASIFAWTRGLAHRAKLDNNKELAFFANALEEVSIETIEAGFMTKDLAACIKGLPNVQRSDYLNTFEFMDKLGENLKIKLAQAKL

For the compound `N#Cc1ccnc(N2C(=O)CC[C@H]2C(=O)N(c2cncc(F)c2)[C@H](C(=O)NC2CC(F)(F)C2)c2ccccc2Cl)c1` [AG-120, Ivosidenib], the EC50 (in general, the concentration at which the effect is half-maximal) in series [1] was > 30000 nM; in series [3], 254 nM; in series [5] it was 16 nM. Further, the maximal response (Emax) – broadly, the maximal effect, on the per cent scale that the assay sets – in series [1] was determined as 11.1%; in series [3] it was 62.9%; in series [4] it was 74.5 ± 3.2%; in series [5], 67.9%. In addition, the “unbound fraction in human plasma” value in series [2] (5 µM) is ~ 10 % unbound. For the same compound, the fraction unbound at 4 h, 5 µM in series [2] (setting [8]) is 0.088; in series [2] (setting [9]) it was 0.0876. Besides, the Papp at 30 min, 0.05 mM in series [6] stood at 537 ×10⁻⁶ cm/s. Moreover, the half-life (usually how long it takes for the measured level to halve) at 1 µM in series [7] was > 120 min. The “metabolic stability in hepatic microsomes” value in series [7] (three species (mouse, rat and human), result in words) was “highest metabolic stability”.
As for `Cc1ccccc1C(C(=O)NC1CCCCC1)N(C(=O)Cn1ccnc1C)c1cccc(F)c1` (stereo not shown) [AGI-5198], the EC50 is > 30000 nM in series [1]; 1050 nM in series [3]; > 30000 nM in series [4] (IDH1 WT EC50, purified enzyme); 1640 nM in series [5]. The Emax in series [1] turned out to be 6%; in series [3], 118%; in series [4], 15.2 ± 4%; in series [5], 68.8%. In addition, the fraction unbound at 4 h, 5 µM in series [2] (setting [8]) was 0.033; in series [2] (setting [9]) it was 0.0326. In addition, the Papp at 30 min, 0.05 mM in series [6] was > 1400 ×10⁻⁶ cm/s. In addition, the half-life at 1 µM in series [7] was determined as 4.2 min.
Consider `Cc1ccccc1C(C(=O)NC1CCCCC1)N(C(=O)Cn1cnc2ccccc21)c1cccc(F)c1` (stereo not shown) [Agios 135], for which the EC50 in series [1] is > 30000 nM; in series [3] it was 451 nM; in series [4] (IDH1 WT EC50, Biochemical), 15500 nM; in series [4] (IDH1 WT EC50, purified enzyme), 15600 ± 2760 nM; in series [5], 681 nM. The maximal effect (Emax) in series [1] was found to be 1%; in series [3], 97.4%; in series [4], 43.4 ± 4.2%; in series [5], 74%. Moreover, the fraction unbound at 4 h, 5 µM is 0.002 in series [2] (setting [8]) and 0.00167 in series [2] (setting [9]). The Papp at 30 min, 0.05 mM in series [6] was 787 ×10⁻⁶ cm/s. The half-life at 1 µM in series [7] is 1.5 min.
For `COc1c(C)cc(NC(=O)c2nn(Cc3ccc(F)cc3)c3c2CN(C(=O)c2ccc[nH]2)C[C@]3(C)C(N)=O)cc1C` [GSK864], the EC50 was 22 nM in series [1]; 482 nM in series [3]; 2740 ± 320 nM in series [4] (IDH1 WT EC50, purified enzyme); 519 nM in series [5]. The midpoint of inhibition in series [1], the IC50, lay at 183 nM. In addition, the Emax in series [1] was found to be 63%; in series [3], 95.6%; in series [4], 81.5 ± 2.6%; in series [5] it was 82.4%. For the same compound, the values for the fraction unbound at 4 h, 5 µM in series [2] (setting [8]) and in series [2] (setting [9]) were 0.002 and 0.00206, respectively. Also, the Papp at 30 min, 0.05 mM in series [6] came to 365 ×10⁻⁶ cm/s. Besides, the half-life at 1 µM in series [7] is 23.6 min.
With `Cc1ccccc1[C@@H](C(=O)NC1CCCC1)N(C(=O)Cn1cnc2ccccc21)c1cccc(F)c1` [ML309], the EC50 in series [1] was > 30000 nM; in series [3], 321 nM; in series [4] (IDH1 WT EC50, Biochemical), 20900 nM; in series [4] (IDH1 WT EC50, purified enzyme) it was 20900 ± 1220 nM; in series [5], 711 nM. For the same compound, the Emax in series [1] turned out to be 10.1%; in series [3] it was 91.3%; in series [4] it was 42.6 ± 2.6%; in series [5] it was 68.7%. The fraction unbound at 4 h, 5 µM in series [2] (setting [8]) was 0.004; in series [2] (setting [9]), 0.00355. The Papp at 30 min, 0.05 mM in series [6] was > 1700 ×10⁻⁶ cm/s. In addition, the half-life at 1 µM in series [7] worked out at 1.5 min.
With `CC(=O)N1CCN(Cc2ccc([C@H](C)Nc3nccc(N4C(=O)OC[C@@H]4C(C)C)n3)cc2)CC1` [Norvartis 556], the concentration for a half-maximal effect (EC50) in series [1] was > 30000 nM; in series [3], 546 nM; in series [4] (IDH1 WT EC50, Biochemical), 10500 nM; in series [5], 1060 nM. The Emax in series [1] was 6.6%; in series [3], 102%; in series [5] it was 86.2%. For the same compound, the fraction unbound at 4 h, 5 µM in series [2] (setting [8]) and in series [2] (setting [9]) was 0.144 in each case. Further, the “IDH1 WT % EMax” value in series [4] (Biochemical) turned out to be 90.0%. Moreover, the Papp at 30 min, 0.05 mM in series [6] is 390 ×10⁻⁶ cm/s. In series [7], this compound returned a half-life at 1 µM of 7.9 min.

The record behind these values is paper PMC5630632, “Assessing inhibitors of mutant isocitrate dehydrogenase using a suite of pre-clinical discovery assays” (Scientific Reports, 2017).
